Data reported in patent US4012576A, “Antibiotic complex Bu 2183” (priority 1975, dated 1977).
Converted amounts (≈) assume the structure as drawn. “Also recorded” adds a separate entry of the source. Where two headings read alike, the source gives them in different places.

Assays:
[1] = test system: Gram-positive and Gram-negative bacteria; assay: In vitro antibacterial activity (general); assay type: cell-based
Procedure: (§1) The minimum inhibitory concentrations (MIC) of Bu-2183 A and B were determined against a wide variety of bacteria by the two-fold agar dilution method on Nutrient Agar plates. The inocula-replicating device of Steers et al. was used. Inoculum size was adjusted to be 10^4 dilution of overnight culture of the test organisms in Heart Infusion Broth (Difco). The results are shown in Table 6 along with those of kanamycin which was comparatively tested as a reference antibiotic.

E. coli JR 66/W677 = assay: MIC, two-fold agar dilution on Nutrient Agar; assay type: cell-based; conditions: Escherichia coli
Procedure: as §1

E. coli A20732 = assay: MIC, two-fold agar dilution on Nutrient Agar; assay type: cell-based; conditions: Escherichia coli, A20732
Procedure: as §1

E. coli NR 79/W677 = assay: MIC, two-fold agar dilution on Nutrient Agar; assay type: cell-based; conditions: Escherichia coli
Procedure: as §1

Pr. morganii A20031 = assay: MIC, two-fold agar dilution on Nutrient Agar; assay type: cell-based; conditions: Morganella morganii, A20031
Procedure: as §1

Ent. cloacae A20364 = assay: MIC, two-fold agar dilution on Nutrient Agar; assay type: cell-based; conditions: Enterobacter cloacae, A20364
Procedure: as §1

Ps. aeruginosa GN 315 = assay: MIC, two-fold agar dilution on Nutrient Agar; assay type: cell-based; conditions: Pseudomonas aeruginosa, GN315
Procedure: as §1

Ps. aeruginosa A20653 = assay: MIC, two-fold agar dilution on Nutrient Agar; assay type: cell-based; conditions: Pseudomonas aeruginosa
Procedure: as §1

S. aureus D133 = assay: MIC, two-fold agar dilution on Nutrient Agar; assay type: cell-based; conditions: Staphylococcus aureus
Procedure: as §1

[2] = test system: K. pneumoniae Type 22-3038; assay: MIC, two-fold agar dilution on Nutrient Agar; assay type: cell-based; conditions: Klebsiella pneumoniae, TYPE223038
Procedure: as §1

E. coli A20895 = assay: MIC, two-fold agar dilution on Nutrient Agar; assay type: cell-based; conditions: Escherichia coli
Procedure: as §1

Ps. aeruginosa A20896 = assay: MIC, two-fold agar dilution on Nutrient Agar; assay type: cell-based; conditions: Pseudomonas aeruginosa
Procedure: as §1

S. aureus D193 = assay: MIC, two-fold agar dilution on Nutrient Agar; assay type: cell-based; conditions: Staphylococcus aureus, D193
Procedure: as §1

E. coli R 5 = assay: MIC, two-fold agar dilution on Nutrient Agar; assay type: cell-based; conditions: Escherichia coli
Procedure: as §1

S. aureus D137 = assay: MIC, two-fold agar dilution on Nutrient Agar; assay type: cell-based; conditions: Staphylococcus aureus
Procedure: as §1

Ps. aeruginosa A9930 = assay: MIC, two-fold agar dilution on Nutrient Agar; assay type: cell-based; conditions: Pseudomonas aeruginosa, A9930
Procedure: as §1

E. coli JR 35/C600 = assay: MIC, two-fold agar dilution on Nutrient Agar; assay type: cell-based; conditions: Escherichia coli, JR35/C600
Procedure: as §1

S. aureus Smith = assay: MIC, two-fold agar dilution on Nutrient Agar; assay type: cell-based; conditions: Staphylococcus aureus
Procedure: as §1

Ser. marcescens A20019 = assay: MIC, two-fold agar dilution on Nutrient Agar; assay type: cell-based; conditions: Serratia marcescens, A20019
Procedure: as §1

E. coli NIHJ = assay: MIC, two-fold agar dilution on Nutrient Agar; assay type: cell-based; conditions: Escherichia coli
Procedure: as §1

Pr. vulgaris A9436 = assay: MIC, two-fold agar dilution on Nutrient Agar; assay type: cell-based; conditions: Proteus vulgaris
Procedure: as §1

Ent. cloacae A21006 = assay: MIC, two-fold agar dilution on Nutrient Agar; assay type: cell-based; conditions: Enterobacter cloacae, A21006
Procedure: as §1

S. aureus A20239 = assay: MIC, two-fold agar dilution on Nutrient Agar; assay type: cell-based; conditions: Staphylococcus aureus
Procedure: as §1

Ps. aeruginosa A20601 = assay: MIC, two-fold agar dilution on Nutrient Agar; assay type: cell-based; conditions: Pseudomonas aeruginosa
Procedure: as §1

Ps. aeruginosa No. 130 = assay: MIC, two-fold agar dilution on Nutrient Agar; assay type: cell-based; conditions: Pseudomonas aeruginosa, NO.130
Procedure: as §1

Ser. marcescens A21247 = assay: MIC, two-fold agar dilution on Nutrient Agar; assay type: cell-based; conditions: Serratia marcescens
Procedure: as §1

E. coli PO 1495 = assay: MIC, two-fold agar dilution on Nutrient Agar; assay type: cell-based; conditions: Escherichia coli, PO1495, read-out: MIC
Procedure: as §1

K. pneumoniae D11 = assay: MIC, two-fold agar dilution on Nutrient Agar; assay type: cell-based; conditions: Klebsiella pneumoniae
Procedure: as §1

E. coli A20107 = assay: MIC, two-fold agar dilution on Nutrient Agar; assay type: cell-based; conditions: Escherichia coli
Procedure: as §1

Pr. mirabilis A9554 = assay: MIC, two-fold agar dilution on Nutrient Agar; assay type: cell-based; conditions: Proteus mirabilis
Procedure: as §1

Pseudomonas sp. A20621 = assay: MIC, two-fold agar dilution on Nutrient Agar; assay type: cell-based; conditions: Pseudomonas, SP.A20621
Procedure: as §1

E. coli ML 1630 = assay: MIC, two-fold agar dilution on Nutrient Agar; assay type: cell-based; conditions: Escherichia coli
Procedure: as §1

Prov. stuartii A20894 = assay: MIC, two-fold agar dilution on Nutrient Agar; assay type: cell-based; conditions: Providencia stuartii, A20894
Procedure: as §1

Solubility = assay type: physicochemical; conditions: base
Titration in water = assay type: physicochemical

Structure (SMILES): CCCC(=O)NC1C(CO)OC(OC(C(O)CN)C(N)C(O)CO)C(O)C1O (stereo not drawn) [Bu-2183 A2]
- bio-activity [1]: bio-active
- activity of Bu-2183 A2 relative to Bu-2183 A and B ([1]; in vitro): more active than Bu-2183 B but less active than Bu-2183 A
- antibacterial spectrum ([1]; in vitro): broad spectrum of antibacterial activity
- MIC (E. coli JR 66/W677; JR66/W677, Table 7, Ec-53): 25 µg/mL (≈ 60.8 µM)
- MIC (E. coli A20732; Table 7, Ec-72, read-out: MIC): 25 µg/mL (≈ 60.8 µM)
- MIC (E. coli NR 79/W677; NR79/W677, Table 7, Ec-9): 25 µg/mL (≈ 60.8 µM)
- MIC (Pr. morganii A20031; Table 7, Pg-2, read-out: MIC): 50 µg/mL (≈ 122 µM)
- MIC (Ent. cloacae A20364; Table 7, El-2, read-out: MIC): 100 µg/mL (≈ 243 µM)
- MIC (Ps. aeruginosa GN 315; Table 7, Pa-27, read-out: MIC): 100 µg/mL (≈ 243 µM)
- MIC (Ps. aeruginosa A20653; A20653, Table 7, Pa-12, read-out: MIC): > 100 µg/mL
- MIC (S. aureus D133; D133, Table 7, Sa-4, read-out: MIC): 100 µg/mL (≈ 243 µM)
- MIC ([2]; Table 7, Kp-8 (printed Type 22-3028), read-out: MIC): 100 µg/mL (≈ 243 µM)
- MIC (E. coli A20895; A20895, Table 7, Ec-62, read-out: MIC): 50 µg/mL (≈ 122 µM)
- MIC (Ps. aeruginosa A20896; A20896, Table 7, Pa-24, read-out: MIC): > 100 µg/mL
- MIC (S. aureus D193; Table 7, Sa-3, read-out: MIC): 50 µg/mL (≈ 122 µM)
- MIC (E. coli R 5; R5, Table 7, Ec-55): 25 µg/mL (≈ 60.8 µM)
- MIC (S. aureus D137; D137, Table 7, Sa-9, read-out: MIC): 100 µg/mL (≈ 243 µM)
- MIC (Ps. aeruginosa A9930; Table 7, Pa-3, read-out: MIC): 50 µg/mL (≈ 122 µM)
- MIC (E. coli JR 35/C600): 6.3 µg/mL (≈ 15.3 µM)
- MIC (S. aureus Smith; Table 7, Sa-2, read-out: MIC): 25 µg/mL (≈ 60.8 µM)
- MIC (Ser. marcescens A20019; Table 7, Sm-1, read-out: MIC): > 100 µg/mL
- MIC (E. coli NIHJ; Table 7, Ec-1, read-out: MIC): 100 µg/mL (≈ 243 µM)
- MIC (Pr. vulgaris A9436; A9436, Table 7, Pv-1, read-out: MIC): 100 µg/mL (≈ 243 µM)
- MIC (Ent. cloacae A21006; Table 7, El-12, read-out: MIC): 100 µg/mL (≈ 243 µM)
- MIC (S. aureus A20239; A20239, Table 7, Sa-10, read-out: MIC): 100 µg/mL (≈ 243 µM)
- MIC (Ps. aeruginosa A20601; A20601, Table 7, Pa-21, read-out: MIC): > 100 µg/mL
- MIC (Ps. aeruginosa No. 130; Table 7, Pa-16, read-out: MIC): 100 µg/mL (≈ 243 µM)
- MIC (Ser. marcescens A21247; A21247, Table 7, Sm-16, read-out: MIC): > 100 µg/mL
- MIC (E. coli PO 1495; Table 7, Ec-2): > 100 µg/mL
- MIC (K. pneumoniae D11; D11, Table 7, Kp-1, read-out: MIC): 12.5 µg/mL (≈ 30.4 µM)
- MIC (E. coli A20107; A20107, Table 7, Ec-49, read-out: MIC): 50 µg/mL (≈ 122 µM)
- MIC (Pr. mirabilis A9554; A9554, Table 7, Pm-1, read-out: MIC): 50 µg/mL (≈ 122 µM)
- MIC (Pseudomonas sp. A20621; Table 7, Px-10, read-out: MIC): > 100 µg/mL
- MIC (E. coli ML 1630; ML1630, Table 7, Ec-5, read-out: MIC): 50 µg/mL (≈ 122 µM)
- MIC (Prov. stuartii A20894; Table 7, Ps-2, read-out: MIC): > 100 µg/mL
- solubility in methanol and ethanol (Solubility): slightly soluble
- solubility in n-butanol, acetone and other common organic solvents (Solubility): practically insoluble
- solubility in water (Solubility): soluble

Structure (SMILES): NC[C@H](O)[C@@H](O[C@H]1O[C@H](CO)[C@@H](O)[C@H](O)[C@H]1O)[C@H](N)[C@H](O)CO [Bu-2183 C]
- bio-activity [1]: bio-inactive; also recorded: bioinactive

Structure (SMILES): NC[C@H](O)[C@@H](O[C@H]1O[C@H](CO)[C@@H](N)[C@H](O)[C@H]1O)[C@H](N)[C@H](O)CO [Bu-2183 D]
- bio-activity [1]: bio-inactive
- bio-activity ([1]; listed as D): bio-inactive; also recorded: bioinactive
- pKa (Titration in water; read-out: pKa' (first value)): 6.95
- pKa (Titration in water; read-out: pKa' (second value)): 9.68
- solubility in methanol and ethanol (Solubility): slightly soluble
- solubility in n-butanol, acetone and other common organic solvents (Solubility): practically insoluble
- solubility in water (Solubility): soluble

Structure (SMILES): NC[C@H]1O[C@H](O[C@H]2[C@H](O)[C@@H](O[C@H]3O[C@H](CO)[C@@H](O)[C@H](N)[C@H]3O)[C@H](N)C[C@@H]2N)[C@H](O)[C@@H](O)[C@@H]1O [Kanamycin A, reference compound]
- MIC (E. coli JR 66/W677; JR66/W677, Table 6, Ec-53): 25 µg/mL (≈ 51.6 µM)
- MIC (E. coli A20732): 12.5 µg/mL (≈ 25.8 µM)
- MIC (E. coli NR 79/W677; NR79/W677, Table 6, Ec-9): 25 µg/mL (≈ 51.6 µM)
- MIC (Pr. morganii A20031): 0.8 µg/mL (≈ 1.65 µM)
- MIC (Ent. cloacae A20364): 100 µg/mL (≈ 206 µM)
- MIC (Ps. aeruginosa GN 315): 100 µg/mL (≈ 206 µM)
- MIC (Ps. aeruginosa A20653; A20653): > 100 µg/mL
- MIC (S. aureus D133; D133): 0.8 µg/mL (≈ 1.65 µM)
- MIC [2]: 100 µg/mL (≈ 206 µM)
- MIC (E. coli A20895; A20895): 0.8 µg/mL (≈ 1.65 µM)
- MIC (Ps. aeruginosa A20896; A20896): > 100 µg/mL
- MIC (S. aureus D193): 0.4 µg/mL (≈ 0.826 µM)
- MIC (E. coli R 5; R5, Table 6, Ec-55): 6.3 µg/mL (≈ 13 µM)
- MIC (S. aureus D137; D137): 1.6 µg/mL (≈ 3.3 µM)
- MIC (Ps. aeruginosa A9930): 6.3 µg/mL (≈ 13 µM)
- MIC (E. coli JR 35/C600): 12.5 µg/mL (≈ 25.8 µM)
- MIC (S. aureus Smith): 0.2 µg/mL (≈ 0.413 µM)
- MIC (Ser. marcescens A20019): 0.8 µg/mL (≈ 1.65 µM)
- MIC (E. coli NIHJ): 0.8 µg/mL (≈ 1.65 µM)
- MIC (Pr. vulgaris A9436; A9436): 0.2 µg/mL (≈ 0.413 µM)
- MIC (Ent. cloacae A21006): 50 µg/mL (≈ 103 µM)
- MIC (S. aureus A20239; A20239): 25 µg/mL (≈ 51.6 µM)
- MIC (Ps. aeruginosa A20601; A20601): 12.5 µg/mL (≈ 25.8 µM)
- MIC (Ps. aeruginosa No. 130): 25 µg/mL (≈ 51.6 µM)
- MIC (Ser. marcescens A21247; A21247): > 100 µg/mL
- MIC (E. coli PO 1495; Table 6, Ec-2): 0.4 µg/mL (≈ 0.826 µM)
- MIC (K. pneumoniae D11; D11): 0.2 µg/mL (≈ 0.413 µM)
- MIC (E. coli A20107; A20107): 25 µg/mL (≈ 51.6 µM)
- MIC (Pr. mirabilis A9554; A9554): 0.4 µg/mL (≈ 0.826 µM)
- MIC (Pseudomonas sp. A20621): 12.5 µg/mL (≈ 25.8 µM)
- MIC (E. coli ML 1630; ML1630): 100 µg/mL (≈ 206 µM)
- MIC (Prov. stuartii A20894): 0.8 µg/mL (≈ 1.65 µM)
